ChEMBL document CHEMBL4715758, “Hit-to-Lead Optimization of a Novel Class of Potent, Broad-Spectrum Trypanosomacides” (J Med Chem, 2016)
≈ marks a conversion by molar mass, not a printed value. Calls of active or inactive are those of the source. The rule behind the calls is not given here.

Tests used:
Trypanosoma cruzi [1] = assay: Antitrypanosomal activity against Trypanosoma cruzi Tulahuen strain trypomastigotes infected in rat H9c2 cells incubated for 72 hrs by DRAQ5 DNA dye based imaging analysis; assay type: functional, organism-based; details: H9c2, 72 h
[2] = Selectivity index, ratio of IC50 for cytotoxicity against rat H9c2 cells assessed as reduction in cell viability to IC50 for antitrypanosomal against Trypanosoma cruzi Tulahuen trypomastigotes infected in rat H9c2 cells; assay type: toxicity, cell-based; details: read-out: Ratio IC50
[3] = Metabolic stability in human liver microsomes assessed as half-life measured after 60 mins in presence of NADPH generating system by LC-MS analysis; assay type: ADME, Microsome
[4] = Intrinsic clearance in human liver microsomes assessed per mg protein measured after 60 mins in presence of NADPH generating system by LC-MS analysis; assay type: ADME, Microsome; details: read-out: CLH
[5] = test system: Trypanosoma brucei rhodesiense; assay: Antitrypanosomal activity against Trypanosoma brucei rhodesiense STIB900 trypomastigotes incubated for 72 hrs by resazurin dye based fluorescence assay; assay type: functional, organism-based; details: STIB900, 72 h
Leishmania donovani = assay: Antileishmanial activity against Leishmania donovani MHOM/ET/67/L82 amastigotes measured after 72 hrs by alamar blue dye based fluorimetry analysis; assay type: functional, organism-based; details: MHOM/ET/67/L82, 72 h
L6 = assay: Cytotoxicity against rat L6 cells assessed as reduction in cell viability measured after 72 hrs by alamar blue dye based fluorimetry analysis; details: L6, 72 h
Trypanosoma cruzi [6] = assay: Antitrypanosomal activity against Trypanosoma cruzi Tulahuen C4 strain amastigotes infected in rat L6 cells measured after 96 hrs by inverted microscopy analysis; assay type: functional, organism-based; details: Tulahuen C4, L6, 96 h
[7] = test system: Trypanosoma brucei brucei; assay: Antitrypanosomal activity against Trypanosoma brucei brucei Lister 427 strain blood stream forms incubated for 48 hrs by resazurin dye based fluorescence assay; assay type: functional, organism-based; details: Lister 427, 48 h
[8] = Selectivity index, ratio of IC50 for cytotoxicity against human HEK293 cells assessed as reduction in cell viability to IC50 for antitrypanosomal activity against Trypanosoma brucei brucei Lister 427 blood stream form; assay type: toxicity, cell-based; details: read-out: Ratio IC50
Plasmodium falciparum = assay: Antiplasmodial activity against chloroquine and pyrimethamine resistant erythrocytic stage of Plasmodium falciparum K1 strain assessed as reduction in [3H]hypoxanthine incorporation measured after 48 hrs by liquid scintillation counting method; assay type: functional, organism-based
[9] = Toxicity in Balb/c mouse infected with Trypanosoma cruzi Brazil trypomastigotes coexpressing luciferase assessed as hunched-back posture at 50 mg/kg, po BID administered for 5 days; assay type: organism-based; details: in vivo, 120 h, time 5 day
[10] = Dose normalized Cmax in Balb/c mouse at 50 mg/kg, po administered via gavage; assay type: ADME, organism-based; details: in vivo
[11] = Cmax in Balb/c mouse at 50 mg/kg, po administered via gavage; assay type: ADME, organism-based; design: route oral, dose 50 mg/kg; details: in vivo
[12] = Metabolic stability in human liver microsomes assessed as degradation half-life measured after 60 mins in presence of NADPH generating system by LC-MS analysis; assay type: ADME, Microsome; details: read-out: T50
[13] = Intrinsic clearance in mouse liver microsomes assessed per mg protein measured after 60 mins in presence of NADPH generating system by LC-MS analysis; assay type: ADME, Microsome; details: read-out: CLH
[14] = Tmax in Balb/c mouse at 50 mg/kg, po administered via gavage in presence of 1-aminobenzotriazole; assay type: ADME, organism-based; details: in vivo
[15] = Toxicity in Balb/c mouse infected with Trypanosoma cruzi Brazil trypomastigotes coexpressing luciferase assessed as ruffled fur at 50 mg/kg, po BID administered for 5 days; assay type: organism-based; details: in vivo, 120 h, time 5 day
[16] = Dose normalized Cmax in Balb/c mouse at 50 mg/kg, po administered via gavage in presence of 1-aminobenzotriazole; assay type: ADME, organism-based; details: in vivo
Trypanosoma cruzi [17] = assay: Antitrypanosomal activity against Trypanosoma cruzi Brazil trypomastigotes coexpressing luciferase infected in BALB/c mouse model assessed as reduction in parasite load at 50 mg/kg, po BID administered for 5 days followed by cyclophosphamide addition 30 days post last dose and measured 10 days post cyclophosphamide addition; assay type: functional, organism-based; details: time 45.0 day
[18] = Dose normalized AUClast in Balb/c mouse at 50 mg/kg, po administered via gavage; assay type: ADME, organism-based; details: in vivo
[19] = AUClast (0 to t) in Balb/c mouse at 50 mg/kg, po administered via gavage; assay type: ADME, organism-based; design: time 0 - last, route oral, dose 50 mg/kg; details: in vivo
[20] = Dose normalized AUClast in Balb/c mouse at 50 mg/kg, po administered via gavage in presence of 1-aminobenzotriazole; assay type: ADME, organism-based; details: in vivo
[21] = Toxicity in Balb/c mouse infected with Trypanosoma cruzi Brazil trypomastigotes coexpressing luciferase assessed as low resistance to handling at 50 mg/kg, po BID administered for 5 days; assay type: organism-based; details: in vivo, 120 h, time 5 day
Trypanosoma cruzi [22] = assay: Antitrypanosomal activity against Trypanosoma cruzi Brazil trypomastigotes coexpressing luciferase infected in BALB/c mouse model assessed as reduction in parasite load at 50 mg/kg, po BID administered for 5 days measured after 10 days; assay type: functional, organism-based; details: time 10.0 day
[23] = AUClast (0 to t) in Balb/c mouse at 50 mg/kg, po administered via gavage in presence of 1-aminobenzotriazole; assay type: ADME, organism-based; design: route oral, time 0 - last, dose 50 mg/kg; details: in vivo
[24] = Tmax in Balb/c mouse at 50 mg/kg, po administered via gavage; assay type: ADME, organism-based; details: in vivo
[25] = Metabolic stability in mouse liver microsomes assessed as degradation half-life measured after 60 mins in presence of NADPH generating system by LC-MS analysis; assay type: ADME, Microsome; details: read-out: T50
[26] = Cmax in Balb/c mouse at 50 mg/kg, po administered via gavage in presence of 1-aminobenzotriazole; assay type: ADME, organism-based; design: route oral, dose 50 mg/kg; details: in vivo
Vero = assay: Cytotoxicity against African green monkey Vero cells assessed as reduction in cell viability; assay type: cell-based; details: chlorocebus sabaeus
Trypanosoma cruzi [27] = assay: Antitrypanosomal activity against Trypanosoma cruzi infected in vero cells assessed as parasite growth inhibition incubated from 24 to 96 hrs by time kill assay; assay type: functional, organism-based
[28] = Partition coefficient, log D of compound at pH 7.4 by HPLC; assay type: physicochemical; details: octanol/water
Trypanosoma cruzi [29] = assay: Antitrypanosomal activity against Trypanosoma cruzi infected in vero cells assessed as minimum concentration required for parasite growth inhibition incubated from 24 to 96 hrs by time kill assay; assay type: functional; details: time 24-96 hrs, read-out: MEC
Trypanosoma cruzi [30] = assay: Inhibition of Trypanosoma cruzi Tulahuen C4 CYP51 expressed in Escherichia coli JM109 using BOMCC as substrate in presence of NADPH by fluorescence assay
[31] = Kinetic solubility of compound at pH 2 by nephelometry; assay type: physicochemical; details: buffer, read-out: Kinetic_solubility
[32] = Protein binding in human plasma by HPLC-MS analysis; assay type: ADME, cell-free; details: read-out: PPB (converted)
Trypanosoma cruzi [33] = assay: Antitrypanosomal activity against Trypanosoma cruzi infected in vero cells assessed as reduction in parasite growth inhibition incubated for 96 hrs by time kill assay relative to nifurtimox; assay type: functional
[34] = Kinetic solubility of compound at pH 6.5 phosphate buffer by nephelometry; assay type: physicochemical; details: read-out: Kinetic_solubility

## CCN(CC)C(=O)NCCc1csc(-c2ccc(F)cc2F)n1
Trypanosoma cruzi [1]
  IC50: 250 nM
[2]
  selectivity ratio: > 199
[3]
  half-life: 8 min
[4]
  microsomal CLint: 177 µL/min/mg

## O=C(NCCc1csc(-c2ccc(F)cc2F)n1)c1cc(F)ccc1F
Trypanosoma cruzi [1]
  IC50: 130 nM
[2]
  selectivity ratio: > 398
[3]
  half-life: 6 min
[4]
  microsomal CLint: 231 µL/min/mg

## O=C(NCCc1csc(-c2ccccc2)n1)c1ccccc1F
[5]
  IC50: 420 nM
Leishmania donovani
  IC50: 11000 nM
L6
  IC50: 79000 nM
Trypanosoma cruzi [6]
  IC50: 1100 nM

## O=C(NCCc1csc(-c2ccccc2)n1)c1ccccn1
[7]
  IC50: 300 nM
[8]
  selectivity ratio: 139
[5]
  IC50: 220 nM
Leishmania donovani
  IC50: 12000 nM
Plasmodium falciparum
  IC50: 65000 nM
L6
  IC50: 66000 nM
Trypanosoma cruzi [6]
  IC50: 900 nM

## O=C(NCCc1csc(-c2ccc(F)cc2F)n1)N1CCCCC1
Trypanosoma cruzi [1]
  IC50: 20 nM
[9]
  Activity: Toxic
[7]
  IC50: 24 nM
[10]
  Cmax/dose: 4.3 kg·ng/mL/mg
[11]
  Cmax: 212 ng/mL
[12]
  half-life: 8 min
[13]
  microsomal CLint: > 1600 µL/min/mg
[2]
  selectivity ratio: > 3160
[14]
  Tmax: 30 min
[15]
  Activity: Toxic
[16]
  Cmax/dose: 142 kg·ng/mL/mg
[8]
  selectivity ratio: 433
Trypanosoma cruzi [17]
  Activity: inactive
[18]
  AUClast/dose: 2.54 ng·h/mL/mg/kg
[19]
  AUC(0-t): 127 ng·h/mL
[3]
  half-life: 5 min
[20]
  AUClast/dose: 295 ng·h/mL/mg/kg
[21]
  Activity: Toxic
Trypanosoma cruzi [22]
  Activity: Active
[23]
  AUC(0-t): 14800 ng·h/mL
[24]
  Tmax: 15 min
[25]
  half-life: < 2 min
[4]
  microsomal CLint: 225 µL/min/mg
[26]
  Cmax: 7090 ng/mL

## Cc1ccoc1C(=O)NCCc1csc(-c2ccccc2)n1
[7]
  IC50: 130 nM
Vero
  Activity: 50 µM
Trypanosoma cruzi [27]
  IC50: 600 nM
[28]
  logD: 3.5
Trypanosoma cruzi [29]
  minimal effective concentration: 0.6 µM
Trypanosoma cruzi [30]
  inhibition: inactive
[31]
  solubility kinetic: 6 µg/mL (≈ 19.2 µM)
[8]
  selectivity ratio: 666
[32]
  fraction unbound: 0.05
Trypanosoma cruzi [33]
  Imax: 104%
[34]
  solubility kinetic: 6 µg/mL (≈ 19.2 µM)

## O=C(NCCc1csc(-c2ccccc2)n1)N1CCCC1
Trypanosoma cruzi [1]
  IC50: 320 nM
[28]
  logD: 2.8
[12]
  half-life: 10 min
[31]
  solubility kinetic: > 100 µg/mL
[5]
  IC50: 46 nM
[32]
  fraction unbound: 0.14
Leishmania donovani
  IC50: 17000 nM
[4]
  microsomal CLint: 177 µL/min/mg
L6
  IC50: 144000 nM
[34]
  solubility kinetic: 50 µg/mL (≈ 166 µM)
Trypanosoma cruzi [6]
  IC50: 96 nM
